{
  "source": "the supplement of paper PMC11061612",
  "key": {"Carboplatin": {"compound": "C1CC(C1)(C(=O)[O-])C(=O)[O-].N.N.[Pt+2] [Carboplatin]", "conditions": "max 10 µM", "summary_of_the_method": "(§1)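 Viability was measured with CellTiter-Glo 2.0 luminescence after 72 hours of dosing at a final DMSO of typically 0.2%, and scaled between blank-well and DMSO-well means. Beforehand, cancer cell lines sat 24 hours at 37°C and 5% CO2 in 1536-well plates in 7.5 μl DMEM/F12 or RPMI with 10% FBS. A non-linear mixed effects model fitted two-parameter logistic curves to the dose responses. The single-agent IC50 comes from these fits.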"}, "AZD5363": {"compound": "C1CN(CCC1(C(=O)N[C@@H](CCO)C2=CC=C(C=C2)Cl)N)C3=NC=NC4=C3C=CN4 [AZD5363]", "conditions": "max 10 µM", "summary_of_the_method": "as §1"}, "AZD1775": {"compound": "C=CCn1c(=O)c2cnc(Nc3ccc(N4CCN(C)CC4)cc3)nc2n1-c1cccc(C(C)(C)O)n1 [AZD1775]", "conditions": "max 3 µM", "summary_of_the_method": "as §1"}, "Trametinib": {"compound": "CC(=O)Nc1cccc(-n2c(=O)n(C3CC3)c(=O)c3c(Nc4ccc(I)cc4F)n(C)c(=O)c(C)c32)c1 [Trametinib]", "conditions": "max 1 µM", "summary_of_the_method": "as §1"}, "Paclitaxel": {"compound": "CC(=O)O[C@H]1C(=O)[C@@]2(C)[C@H]([C@H](OC(=O)c3ccccc3)[C@]3(O)C[C@H](OC(=O)[C@H](O)[C@@H](NC(=O)c4ccccc4)c4ccccc4)C(C)=C1C3(C)C)[C@]1(OC(C)=O)CO[C@@H]1C[C@@H]2O [Paclitaxel]", "conditions": "max 3 µM", "summary_of_the_method": "as §1"}, "Palbociclib": {"compound": "CC(=O)c1c(C)c2cnc(Nc3ccc(N4CCNCC4)cn3)nc2n(C2CCCC2)c1=O [Palbociclib]", "conditions": "max 10 µM", "summary_of_the_method": "as §1"}, "AZD1390": {"compound": "CC(C)n1c(=O)n(C)c2cnc3cc(F)c(-c4ccc(OCCCN5CCCCC5)nc4)cc3c21 [AZD1390]", "conditions": "max 0.3 µM", "summary_of_the_method": "as §1"}, "Venetoclax": {"compound": "CC1(C)CCC(CN2CCN(c3ccc(C(=O)NS(=O)(=O)c4ccc(NCC5CCOCC5)c([N+](=O)[O-])c4)c(Oc4cnc5[nH]ccc5c4)c3)CC2)=C(c2ccc(Cl)cc2)C1 [Venetoclax]", "conditions": "max 1 µM", "summary_of_the_method": "as §1"}, "Dasatinib": {"compound": "CC1=C(C(=CC=C1)Cl)NC(=O)C2=CN=C(S2)NC3=CC(=NC(=N3)C)N4CCN(CC4)CCO [Dasatinib]", "conditions": "max 2 µM", "summary_of_the_method": "as §1"}, "SG3199": {"compound": "CC1=CN2[C@@H](C1)C=NC3=CC(=C(C=C3C2=O)OC)OCCCCCOC4=C(C=C5C(=C4)N=C[C@@H]6CC(=CN6C5=O)C)OC [SG3199]", "conditions": "max 0.001 µM", "summary_of_the_method": "as §1"}, "AZD2811": {"compound": "CCN(CCO)CCCOc1ccc2c(Nc3cc(CC(=O)Nc4cccc(F)c4)[nH]n3)ncnc2c1 [AZD2811]", "conditions": "max 1 µM", "summary_of_the_method": "as §1"}, "SN-38": {"compound": "CCc1c2c(nc3ccc(O)cc13)-c1cc3c(c(=O)n1C2)COC(=O)[C@]3(O)CC [SN-38]", "conditions": "max 0.3 µM", "summary_of_the_method": "as §1"}, "AZD0156": {"compound": "CN(C)CCCOc1ccc(-c2ccc3ncc4c(c3c2)n(C2CCOCC2)c(=O)n4C)cn1 [AZD0156]", "conditions": "max 3 µM", "summary_of_the_method": "as §1"}, "AZD4320": {"compound": "CN(CC[C@H](CSC1=CC=CC=C1)NC2=C(C=C(C=C2)S(=O)(=O)NC(=O)C3=CC=C(C=C3)N4CCC(CC4)[C@H](C5=CC=CC=C5C6=CC=C(C=C6)Cl)O)S(=O)(=O)C(F)(F)F)CCO [AZD4320]", "conditions": "max 1 µM", "summary_of_the_method": "as §1"}, "Alisertib": {"compound": "COc1cc(Nc2ncc3c(n2)-c2ccc(Cl)cc2C(c2c(F)cccc2OC)=NC3)ccc1C(=O)O [Alisertib]", "conditions": "max 10 µM", "summary_of_the_method": "as §1"}, "Etoposide": {"compound": "COc1cc([C@@H]2c3cc4c(cc3[C@@H](O[C@@H]3O[C@@H]5CO[C@@H](C)O[C@H]5[C@H](O)[C@H]3O)[C@H]3COC(=O)[C@H]23)OCO4)cc(OC)c1O [Etoposide]", "conditions": "max 10 µM", "summary_of_the_method": "as §1"}, "Gefitinib": {"compound": "COc1cc2ncnc(Nc3ccc(F)c(Cl)c3)c2cc1OCCCN1CCOCC1 [Gefitinib]", "conditions": "max 10 µM", "summary_of_the_method": "as §1"}, "Prexasertib": {"compound": "COc1cccc(OCCCN)c1-c1cc(Nc2cnc(C#N)cn2)n[nH]1 [Prexasertib]", "conditions": "max 1 µM", "summary_of_the_method": "as §1"}, "Doxorubicin": {"compound": "COc1cccc2c1C(=O)c1c(O)c3c(c(O)c1C2=O)C[C@@](O)(C(=O)CO)C[C@@H]3O[C@H]1C[C@H](N)[C@H](O)[C@H](C)O1 [Doxorubicin]", "conditions": "max 1 µM", "summary_of_the_method": "as §1"}, "AZD5153": {"compound": "COc1nnc2ccc(N3CCC(c4ccc(OCCN5CCN(C)C(=O)[C@H]5C)cc4)CC3)nn12 [AZD5153]", "conditions": "max 1 µM", "summary_of_the_method": "as §1"}, "Lapatinib": {"compound": "CS(=O)(=O)CCNCc1ccc(-c2ccc3ncnc(Nc4ccc(OCc5cccc(F)c5)c(Cl)c4)c3c2)o1 [Lapatinib]", "conditions": "max 10 µM", "summary_of_the_method": "as §1"}, "AZD8186": {"compound": "C[C@@H](Nc1cc(F)cc(F)c1)c1cc(C(=O)N(C)C)cc2c(=O)cc(N3CCOCC3)oc12 [AZD8186]", "conditions": "max 10 µM", "summary_of_the_method": "as §1"}, "Crizotinib": {"compound": "C[C@@H](Oc1cc(-c2cnn(C3CCNCC3)c2)cnc1N)c1c(Cl)ccc(F)c1Cl [Crizotinib]", "conditions": "max 10 µM", "summary_of_the_method": "as §1"}, "Savolitinib": {"compound": "C[C@@H](c1ccc2nccn2c1)n1nnc2ncc(-c3cnn(C)c3)nc21 [Savolitinib]", "conditions": "max 1 µM", "summary_of_the_method": "as §1"}, "AZD6738": {"compound": "C[C@@H]1COCCN1C2=NC(=NC(=C2)C3(CC3)[S@](=N)(=O)C)C4=C5C=CNC5=NC=C4 [AZD6738]", "conditions": "max 10 µM", "summary_of_the_method": "as §1"}, "AZD5991": {"compound": "Cc1c2c(nn1C)CSCc1cc(n(C)n1)CSc1cc(c3ccccc3c1)OCCCc1c(C(=O)O)n(C)c3c-2c(Cl)ccc13 [AZD5991]", "conditions": "max 1 µM", "summary_of_the_method": "as §1"}, "AZD7648": {"compound": "Cc1cc2ncnn2cc1Nc1ncc2c(n1)n(C1CCOCC1)c(=O)n2C [AZD7648]", "conditions": "max 10 µM", "summary_of_the_method": "as §1"}, "Taselisib": {"compound": "Cc1nc(-c2cn3c(n2)-c2ccc(-c4cnn(C(C)(C)C(N)=O)c4)cc2OCC3)n(C(C)C)n1 [Taselisib]", "conditions": "max 10 µM", "summary_of_the_method": "as §1"}, "Selumetinib": {"compound": "Cn1cnc2c(F)c(Nc3ccc(Br)cc3Cl)c(C(=O)NOCCO)cc21 [Selumetinib]", "conditions": "max 10 µM", "summary_of_the_method": "as §1"}, "SRA737": {"compound": "N#Cc1cnc(Nc2cc(NC[C@H]3CNCCO3)c(C(F)(F)F)cn2)cn1 [SRA737]", "conditions": "max 10 µM", "summary_of_the_method": "as §1"}, "MK-2206": {"compound": "NC1(c2ccc(-c3nc4ccn5c(=O)[nH]nc5c4cc3-c3ccccc3)cc2)CCC1 [MK-2206]", "conditions": "max 10 µM", "summary_of_the_method": "as §1"}, "Gemcitabine": {"compound": "Nc1ccn([C@@H]2O[C@H](CO)[C@@H](O)C2(F)F)c(=O)n1 [Gemcitabine]", "conditions": "max 0.3 µM", "summary_of_the_method": "as §1"}, "[1]": {"compound": "O=C(Nc1ccc2[nH]nc(-c3ccncc3)c2c1)[C@@H]1CCN(CC(=O)N2CCN(c3ccc(-c4ncccn4)cc3)CC2)C1", "conditions": "max 5 µM", "summary_of_the_method": "as §1"}, "Olaparib": {"compound": "O=C(c1cc(Cc2n[nH]c(=O)c3ccccc23)ccc1F)N1CCN(C(=O)C2CC2)CC1 [Olaparib]", "conditions": "max 10 µM", "summary_of_the_method": "as §1"}, "5-Fluorouracil": {"compound": "O=c1[nH]cc(F)c(=O)[nH]1 [5-Fluorouracil]", "conditions": "max 20 µM", "summary_of_the_method": "as §1"}},
  "data": [
    {"cell line": "KMRC-1 (Kidney Carcinoma)", "values": [
      {"measurement": "IC50, cell viability 72 h", "setting": "Carboplatin", "result": "> 10000", "unit": "nM"},
      {"measurement": "IC50, cell viability 72 h", "setting": "AZD5363", "result": "> 10000", "unit": "nM"},
      {"measurement": "IC50, cell viability 72 h", "setting": "AZD1775", "result": "> 3000", "unit": "nM"},
      {"measurement": "IC50, cell viability 72 h", "setting": "Trametinib", "result": "> 1000", "unit": "nM"},
      {"measurement": "IC50, cell viability 72 h", "setting": "Paclitaxel", "result": "> 3000", "unit": "nM"},
      {"measurement": "IC50, cell viability 72 h", "setting": "Palbociclib", "result": "> 10000", "unit": "nM"},
      {"measurement": "IC50, cell viability 72 h", "setting": "AZD1390", "result": "> 300", "unit": "nM"},
      {"measurement": "IC50, cell viability 72 h", "setting": "Venetoclax", "result": "> 1000", "unit": "nM"},
      {"measurement": "IC50, cell viability 72 h", "setting": "Dasatinib", "result": 711, "unit": "nM"},
      {"measurement": "IC50, cell viability 72 h", "setting": "SG3199", "result": "> 1", "unit": "nM"},
      {"measurement": "IC50, cell viability 72 h", "setting": "AZD2811", "result": "> 1000", "unit": "nM"},
      {"measurement": "IC50, cell viability 72 h", "setting": "SN-38", "result": "> 300", "unit": "nM"},
      {"measurement": "IC50, cell viability 72 h", "setting": "AZD0156", "result": "> 3000", "unit": "nM"},
      {"measurement": "IC50, cell viability 72 h", "setting": "AZD4320", "result": "> 1000", "unit": "nM"},
      {"measurement": "IC50, cell viability 72 h", "setting": "Alisertib", "result": "> 10000", "unit": "nM"},
      {"measurement": "IC50, cell viability 72 h", "setting": "Etoposide", "result": "> 10000", "unit": "nM"},
      {"measurement": "IC50, cell viability 72 h", "setting": "Gefitinib", "result": "> 10000", "unit": "nM"},
      {"measurement": "IC50, cell viability 72 h", "setting": "Prexasertib", "result": 588, "unit": "nM"},
      {"measurement": "IC50, cell viability 72 h", "setting": "Doxorubicin", "result": "> 1000", "unit": "nM"},
      {"measurement": "IC50, cell viability 72 h", "setting": "AZD5153", "result": "> 1000", "unit": "nM"},
      {"measurement": "IC50, cell viability 72 h", "setting": "Lapatinib", "result": "> 10000", "unit": "nM"},
      {"measurement": "IC50, cell viability 72 h", "setting": "AZD8186", "result": 3160, "unit": "nM"},
      {"measurement": "IC50, cell viability 72 h", "setting": "Crizotinib", "result": "> 10000", "unit": "nM"},
      {"measurement": "IC50, cell viability 72 h", "setting": "Savolitinib", "result": "> 1000", "unit": "nM"},
      {"measurement": "IC50, cell viability 72 h", "setting": "AZD6738", "result": "> 10000", "unit": "nM"},
      {"measurement": "IC50, cell viability 72 h", "setting": "AZD5991", "result": "> 1000", "unit": "nM"},
      {"measurement": "IC50, cell viability 72 h", "setting": "AZD7648", "result": "> 10000", "unit": "nM"},
      {"measurement": "IC50, cell viability 72 h", "setting": "Taselisib", "result": "> 10000", "unit": "nM"},
      {"measurement": "IC50, cell viability 72 h", "setting": "Selumetinib", "result": "> 10000", "unit": "nM"},
      {"measurement": "IC50, cell viability 72 h", "setting": "SRA737", "result": "> 10000", "unit": "nM"},
      {"measurement": "IC50, cell viability 72 h", "setting": "MK-2206", "result": "> 10000", "unit": "nM"},
      {"measurement": "IC50, cell viability 72 h", "setting": "Gemcitabine", "result": 133, "unit": "nM"},
      {"measurement": "IC50, cell viability 72 h", "setting": "[1]", "result": "> 5000", "unit": "nM"},
      {"measurement": "IC50, cell viability 72 h", "setting": "Olaparib", "result": "> 10000", "unit": "nM"},
      {"measurement": "IC50, cell viability 72 h", "setting": "5-Fluorouracil", "result": "> 20000", "unit": "nM"}
    ]}
  ]
}
